Results published in patent publication US20070021414A1, “1-'2-(4-Hydroxyphenyl)-2-hydroxyethyl!-piperidin-4-ol compounds as nmda receptor antagonists” (PFIZER, INC., priority 2003, published 2007).
Where a name gives a salt, the structure may show the parent alone.

Molecular target: T1, HERG potassium channel (Homo sapiens, UniProt Q12809)
T1 construct: expressed in transfected cells; host or cells: HEK293S cells (membrane homogenate)
Assay: Human Dofetilide Binding
Conditions: ratio of [3H]-dofetilide binding Ki (HERG transfected HEK293S membranes) to NR2B binding Ki
Method: Human BERG transfected HEK293S cells were prepared and grown in-house. The collected cells were suspended in 50 mM Tris-HCl (pH 7.4 at 4° C.) and homogenized using a hand held Polytron PT 1200 disruptor set at full power for 20 sec on ice. The homogenates were centrifuged at 48,000×g at 4° C. for 20 min. The pellets were then resuspended, homogenized, and centrifuged once more in the same manner. The final pellets were resuspended in an appropriate volume of 50 mM Tris-HCl, 10 mM KCl, 1 mM MgCl2 (pH 7.4 at 4° C.), homogenized, aliquoted and stored at −80° C. until use. An aliquot of membrane fractions was used for protein concentration determination using BCA protein assay kit (PIERCE) and ARVOsx plate reader (Wallac).
Binding assays were conducted in a total volume of 200 μl in 96-well plates. Twenty μl of test compounds were incubated with 20 μl of [^3H]-dofetilide (Amersham, final 5 nM) and 160 μl of membrane homogenate (25 μg protein) for 60 minutes at room temperature. Nonspecific binding was determined by 10 μM dofetilide at the final concentration. Incubation was terminated by rapid vacuum filtration over 0.5% presoaked GF/B Betaplate filter using Skatron cell harvester with 50 mM Tris-HCl, 10 mM KCl, 1 mM MgCl2, pH 7.4 at 4° C. The filters were dried, put into sample bags and filled with Betaplate Scint. Radioactivity bound to filter was counted with Wallac Betaplate counter.

T1 sequence (Q12809 whole entry): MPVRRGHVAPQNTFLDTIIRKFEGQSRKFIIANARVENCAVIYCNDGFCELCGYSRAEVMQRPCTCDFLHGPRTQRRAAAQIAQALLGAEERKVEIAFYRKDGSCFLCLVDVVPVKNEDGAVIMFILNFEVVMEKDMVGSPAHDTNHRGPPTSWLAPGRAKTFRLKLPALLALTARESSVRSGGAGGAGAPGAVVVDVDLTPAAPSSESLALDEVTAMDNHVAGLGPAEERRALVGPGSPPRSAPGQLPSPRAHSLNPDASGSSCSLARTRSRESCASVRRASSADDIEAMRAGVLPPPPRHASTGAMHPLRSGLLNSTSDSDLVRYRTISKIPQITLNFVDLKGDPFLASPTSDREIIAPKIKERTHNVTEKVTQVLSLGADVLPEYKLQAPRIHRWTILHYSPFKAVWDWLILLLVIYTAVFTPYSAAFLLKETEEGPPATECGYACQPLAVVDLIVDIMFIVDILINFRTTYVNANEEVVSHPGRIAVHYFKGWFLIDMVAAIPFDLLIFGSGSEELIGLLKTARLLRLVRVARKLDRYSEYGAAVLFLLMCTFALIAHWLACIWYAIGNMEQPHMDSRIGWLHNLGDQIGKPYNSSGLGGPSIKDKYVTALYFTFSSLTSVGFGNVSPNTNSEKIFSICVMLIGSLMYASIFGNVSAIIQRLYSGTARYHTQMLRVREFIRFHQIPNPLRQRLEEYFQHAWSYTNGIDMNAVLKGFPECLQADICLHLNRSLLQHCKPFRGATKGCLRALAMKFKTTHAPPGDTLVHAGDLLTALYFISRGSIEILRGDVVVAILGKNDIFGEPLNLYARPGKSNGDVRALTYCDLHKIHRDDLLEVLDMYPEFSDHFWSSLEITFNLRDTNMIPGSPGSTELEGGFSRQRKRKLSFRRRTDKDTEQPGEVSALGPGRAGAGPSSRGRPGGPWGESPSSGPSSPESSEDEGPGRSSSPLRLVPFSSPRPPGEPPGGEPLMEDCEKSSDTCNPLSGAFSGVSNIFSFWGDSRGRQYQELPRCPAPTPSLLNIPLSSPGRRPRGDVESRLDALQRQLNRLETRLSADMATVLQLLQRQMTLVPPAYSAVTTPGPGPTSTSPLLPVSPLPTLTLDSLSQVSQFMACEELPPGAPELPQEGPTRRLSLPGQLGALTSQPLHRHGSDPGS

Row | Compound | TI (Dofetilide Binding Ki [μM]/NR2B Binding Ki [nM]×1000)
1 | Cc1cc([C@H](O)[C@H](C)N2CCC(O)(c3ccc(F)cc3)CC2)ccc1O [comparative compound A] | 220

Test system: not given
Assay: not given
Conditions: not given

Row | Compound | melting point [°C]
2 | COc1ccc(C2(O)CCN(CC(O)c3ccc(O)cc3)CC2)cn1 (stereo not drawn) | 198.8
3 | COCc1ccc(C2(O)CCN(CC(O)c3ccc(O)cc3)CC2)cc1 (stereo not drawn) | 169.6
4 | Oc1cc(F)c(C(O)CN2CCC(O)(c3cccc(F)c3)CC2)cc1F (stereo not drawn) (as salt: hydrochloride) | 207
5 | COc1ccc(C2(O)CCN(CC(O)c3cc(F)c(O)cc3F)CC2)cn1 (stereo not drawn) (as salt: hydrochloride) | 199.5
6 | COCc1ccc(C2(O)CCN(CC(O)c3cc(C)c(O)cc3C)CC2)cc1 (stereo not drawn) | 166.3
7 | COc1ccc(C2(O)CCN(CC(O)c3cc(C)c(O)cc3F)CC2)cn1 (stereo not drawn) | 183.6
8 | Oc1ccc(C(O)CN2CCC(O)(c3ccc4c(c3)COCC4)CC2)c(F)c1 (stereo not drawn) | 186.1
9 | Oc1ccc(C(O)CN2CCC(O)(c3cccc(F)c3)CC2)cc1 (stereo not drawn) | 154.2
10 | Oc1ccc(C(O)CN2CCC(O)(c3cccc(F)c3)CC2)c(F)c1 (stereo not drawn) | 186.1
11 | COc1ccc(C2(O)CCN(CC(O)c3ccc(O)cc3Cl)CC2)cn1 (stereo not drawn) | 190.5
12 | Cc1cc(C(O)CN2CCC(O)(c3cccc(F)c3)CC2)c(F)cc1O (stereo not drawn) | 161.7
13 | COc1ccc(C2(O)CCN(CC(O)c3cc(C)c(O)cc3C)CC2)cn1 (stereo not drawn) | 156.5

The next lines start with the values.

Row | melting point [°C] | Compound
14 | 189.3 | CCOc1ccc(C2(O)CCN(CC(O)c3ccc(O)c(C)c3)CC2)cn1 (stereo not drawn)
15 | 187.4 | CCCOc1ccc(C2(O)CCN(CC(O)c3ccc(O)c(C)c3)CC2)cn1 (stereo not drawn)
16 | 214.3 | COc1ccc(C2(O)CCN(CC(O)c3ccc(O)c(Cl)c3)CC2)cn1.Cl (stereo not drawn)
17 | 163.7 | Cc1cnc(C2(O)CCN(CC(O)c3ccc(O)c(C)c3)CC2)s1 (stereo not drawn)
18 | 172.3 | COc1ccc(C2(O)CCN(CC(O)c3ccc(O)c(C)c3)CC2)nc1F (stereo not drawn)
19 | 164.4 | COCc1ccc(C2(O)CCN(CC(O)c3ccc(O)c(C)c3)CC2)cc1 (stereo not drawn)
20 | 176 | COc1ccc(C2(O)CCN(CC(O)c3ccc(O)c(C)c3)CC2)cn1 (stereo not drawn)
21 | 178.3 | Cc1cc(C(O)CN2CCC(O)(c3ccc4c(c3)COCC4)CC2)ccc1O (stereo not drawn)
